Like-named read-outs stand apart in the source and are kept apart here.
Columns and labels:
[1] = target: T1, native serotonin 5-HT1A receptors (Rattus norvegicus, UniProt P19327); assay: Radioligand binding, [3H]-8-OH-DPAT, rat hippocampal membranes; conditions: read-out: Ki 5-HT1A; also: SEM ≤ 22%
T1 construct: from tissue; host or cells: rat hippocampus membranes
T1 sequence (P19327 1-422): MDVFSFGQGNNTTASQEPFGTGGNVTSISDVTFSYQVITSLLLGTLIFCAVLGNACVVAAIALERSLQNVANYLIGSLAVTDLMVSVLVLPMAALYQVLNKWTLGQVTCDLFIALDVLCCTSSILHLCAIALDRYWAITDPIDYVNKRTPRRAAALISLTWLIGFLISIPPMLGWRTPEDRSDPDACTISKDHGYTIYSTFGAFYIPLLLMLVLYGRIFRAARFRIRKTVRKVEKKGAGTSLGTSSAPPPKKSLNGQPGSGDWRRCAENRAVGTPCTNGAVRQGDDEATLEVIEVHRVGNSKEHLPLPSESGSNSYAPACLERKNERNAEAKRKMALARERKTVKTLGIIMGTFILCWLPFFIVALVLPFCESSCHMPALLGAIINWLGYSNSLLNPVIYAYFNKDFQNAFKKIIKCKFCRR
Protocol: (§1) Membrane preparation and a general assay procedure were carried out according to the previously published protocols. Two compound concentrations were tested: 0.1 and 1 μM, each run in triplicate.

[2] = target: T2, native serotonin 5-HT2A receptors (Rattus norvegicus, UniProt P14842); assay: Radioligand binding, [3H]-ketanserin, rat cortical membranes; conditions: read-out: Ki 5-HT2A; as to Ki 5-HT2A: SEM ≤ 22%
T2 construct: from tissue; host or cells: rat cortex membranes
Protocol: as §1

5-HT1A receptors = conditions: cited from earlier work
5-HT2A = conditions: cited from earlier work
[3] = parameters: method as in PMID 17321139; conditions: doses of 5–20 mg/kg; ref [4]; cited from earlier work

T2 sequence (P14842 whole entry): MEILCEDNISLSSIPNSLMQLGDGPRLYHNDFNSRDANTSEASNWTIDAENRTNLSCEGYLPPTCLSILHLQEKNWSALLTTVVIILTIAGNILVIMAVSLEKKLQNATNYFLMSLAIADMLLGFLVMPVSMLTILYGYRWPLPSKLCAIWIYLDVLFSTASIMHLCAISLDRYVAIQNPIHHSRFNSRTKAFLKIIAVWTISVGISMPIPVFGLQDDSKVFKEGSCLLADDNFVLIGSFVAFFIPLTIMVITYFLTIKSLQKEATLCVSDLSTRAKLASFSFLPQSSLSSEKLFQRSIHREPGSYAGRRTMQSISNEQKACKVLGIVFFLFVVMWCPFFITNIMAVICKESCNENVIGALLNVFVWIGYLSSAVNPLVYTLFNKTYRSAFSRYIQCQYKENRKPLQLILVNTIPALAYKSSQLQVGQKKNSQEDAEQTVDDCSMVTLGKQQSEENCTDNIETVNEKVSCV

Row | SMILES | potency estimated from few doses [1] | potency estimated from few doses [2] | further results
1 | CC(=O)N[C@H]1CC(=O)N(CCCN2CCN(c3cccc(C(F)(F)F)c3)CC2)C1=O [9{8,1}, N-((S)-1-{3-[4-((3-trifluoromethyl)phenyl)piperazin-1-yl]propyl}pyrrolidin-2,5-dion-yl)acetamide] | 129 nM | 164 nM | 
2 | O=C(N[C@H]1CC(=O)N(CCCN2CCN(c3cccc(C(F)(F)F)c3)CC2)C1=O)C1CCCCC1 [9{8,3}, N-((S)-1-{3-[4-((3-trifluoromethyl)phenyl)piperazin-1-yl]propyl}pyrrolidin-2,5-dion-yl)cyclohexanecarboxamide] | 170 nM | 276 nM | 
3 | O=C(N[C@H]1CC(=O)N(CCCCN2CCN(c3cccc(C(F)(F)F)c3)CC2)C1=O)C1CCCC1 [9{9,2}, N-((S)-1-{4-[4-((3-trifluoromethyl)phenyl)piperazin-1-yl]butyl}pyrrolidin-2,5-dion-yl)cyclopentanecarboxamide] | 24 nM | 79 nM | 
4 | O=C(N[C@H]1CC(=O)N(CCCCN2CCN(c3cccc(C(F)(F)F)c3)CC2)C1=O)C1CCCCC1 [9{9,3}, N-((S)-1-{4-[4-((3-trifluoromethyl)phenyl)piperazin-1-yl]butyl}pyrrolidin-2,5-dion-3-yl)cyclohexanecarboxamide] | 19 nM | 70 nM | 
5 | O=C1C[C@H](NC(=O)C23CC4CC(CC(C4)C2)C3)C(=O)N1CCCCN1CCN(c2cccc(C(F)(F)F)c2)CC1 [9{9,6}, N-((S)-1-{4-[4-((3-trifluoromethyl)phenyl)piperazin-1-yl]butyl}pyrrolidin-2,5-dion-yl)-1-adamatanecarboxamide] | 21 nM | 39 nM | 
6 | O=C(NCCCN1CCN(c2cccc(C(F)(F)F)c2)CC1)[C@@H]1CCCN1C(=O)C12CC3CC(CC(C3)C1)C2 [10{8,6}, 1-(Adamantylcarbonyl)-N-{3-[4-((3-trifluoromethyl)phenyl)piperazin-1-yl]propyl}-L-prolinamide] | 42 nM | 1650 nM | 
7 | O=C(NCCCCN1CCN(c2cccc(C(F)(F)F)c2)CC1)[C@@H]1CCCN1C(=O)C1CCCC1 [10{9,2}, 1-(Cyclopentylcarbonyl)-N-{4-[4-((3-trifluoromethyl)phenyl)piperazin-1-yl]butyl}-L-prolinamide] | 26 nM | 191 nM | 
8 | O=C(NCCCCN1CCN(c2cccc(C(F)(F)F)c2)CC1)[C@@H]1CCCN1C(=O)C12CC3CC(CC(C3)C1)C2 [10{9,6}, 1-(Adamantylcarbonyl)-N-{4-[4-((3-trifluoromethyl)phenyl)piperazin-1-yl]butyl}-L-prolinamide] | 8 nM | 699 nM | 
9 | O=c1[nH]c2ccccc2n1CCN1CCN(c2cccc(C(F)(F)F)c2)CC1 [Flibanserin] |  |  | functional activity at 5-HT1A receptors (5-HT1A receptors; ref [1],[2]): agonist; functional activity at 5-HT2A receptors (5-HT2A; ref [1],[2]): antagonist
10 | COc1ccccc1N1CCN(CCCCN2C(=O)C[C@H](NC(=O)C3CCCCC3)C2=O)CC1 [PZ-68] |  |  | functional activity at 5-HT1A receptors (5-HT1A receptors; ref [4]): partial agonist; in vivo antidepressant-like activity [3]: showed in vivo antidepressant-like activity; functional activity at 5-HT2A receptors (5-HT2A; ref [4]): antagonist
11 | O=C1CC2(CCCC2)CC(=O)N1CCCCN1CCN(c2ncccn2)CC1 [buspirone, reference compound] | 36 nM |  | 
